Measured values published in ChEMBL document CHEMBL4011590, “Structure-activity relationship studies on 3,5-dinitrophenyl tetrazoles as antitubercular agents” (Eur J Med Chem, 2017).

Key:
Klebsiella pneumoniae [1] = assay: Antibacterial activity against extended spectrum beta-lactamase producing Klebsiella pneumoniae HK14368/08 after 48 hrs by broth microdilution method; type: functional; details: HK14368/08, 48 h
Trichosporon asahii [2] = assay: Antifungal activity against Trichosporon asahii 1188 after 48 hrs by broth microdilution method; type: functional; details: Trichosporon asahii, 1188, 48 h
Nakaseomyces glabratus [3] = assay: Antifungal activity against Candida glabrata 20/I after 48 hrs by broth microdilution method; type: functional
Staphylococcus aureus [4] = assay: Antibacterial activity against Staphylococcus aureus ATCC 6538 after 24 hrs by broth microdilution method; type: functional; details: ATCC 6538, 24 h
CHO-K1 = assay: Cytotoxicity against CHOK1 cells after 24 hrs by MTT assay; type: cell-based; details: Cricetulus griseus, CHO-K1, 24 h
Mycobacterium kansasii [5] = assay: Antimycobacterial activity against Mycobacterium kansasii isolate 6509/96 after 21 days by micromethod; type: functional; details: isolate 6509/96, 504 h
Klebsiella pneumoniae [6] = assay: Antibacterial activity against extended spectrum beta-lactamase producing Klebsiella pneumoniae HK14368/08 after 24 hrs by broth microdilution method; type: functional; details: HK14368/08, 24 h
Enterococcus sp. [7] = assay: Antibacterial activity against Enterococcus sp. HK14365/08 after 48 hrs by broth microdilution method; type: functional; details: HK14365/08, 48 h
Mycobacterium kansasii [8] = assay: Antimycobacterial activity against Mycobacterium kansasii CNCTC My 235/80 after 21 days by micromethod; type: functional; details: CNCTC My 235/80, 504 h
Pseudomonas aeruginosa [9] = assay: Antibacterial activity against Pseudomonas aeruginosa ATCC 9027 after 24 hrs by broth microdilution method; type: functional; details: ATCC 9027, 24 h
Pichia kudriavzevii [10] = assay: Antifungal activity against Candida krusei E28 after 48 hrs by broth microdilution method; type: functional; details: E28, 48 h
Escherichia coli [11] = assay: Antibacterial activity against Escherichia coli ATCC 8739 after 48 hrs by broth microdilution method; type: functional; details: ATCC 8739, 48 h
[12] = system: Staphylococcus epidermidis; assay: Antibacterial activity against Staphylococcus epidermidis HK6966/08 after 24 hrs by broth microdilution method; type: functional; details: HK6966/08, 24 h
Escherichia coli [13] = assay: Antibacterial activity against Escherichia coli ATCC 8739 after 24 hrs by broth microdilution method; type: functional; details: ATCC 8739, 24 h
[14] = system: Mycobacterium tuberculosis; assay: Antimycobacterial activity against Mycobacterium tuberculosis H37Rv CNCTC My 331/88 after 14 days by micromethod; type: functional; details: H37Rv CNCTC My 331/88, 336 h
[15] = system: Trichophyton mentagrophytes; assay: Antifungal activity against Trichophyton mentagrophytes 445 after 120 hrs by broth microdilution method; type: functional; details: Trichophyton mentagrophytes, 445, 120 h
Staphylococcus aureus [16] = assay: Antibacterial activity against methicillin-resistant Staphylococcus aureus HK5996/08 after 48 hrs by broth microdilution method; type: functional; details: HK5996/08, 48 h
Mycobacterium kansasii [17] = assay: Antimycobacterial activity against Mycobacterium kansasii isolate 6509/96 after 7 days by micromethod; type: functional; details: isolate 6509/96, 168 h
Mycobacterium avium [18] = assay: Antimycobacterial activity against Mycobacterium avium CNCTC My 330/80 after 21 days by micromethod; type: functional; details: CNCTC My 330/80, 504 h
Klebsiella pneumoniae [19] = assay: Antibacterial activity against Klebsiella pneumoniae HK11750/08 after 24 hrs by broth microdilution method; type: functional; details: HK11750/08, 24 h
[20] = system: Staphylococcus epidermidis; assay: Antibacterial activity against Staphylococcus epidermidis HK6966/08 after 48 hrs by broth microdilution method; type: functional; details: HK6966/08, 48 h
[21] = system: Mycobacterium tuberculosis; assay: Antimycobacterial activity against Mycobacterium tuberculosis H37Rv CNCTC My 331/88 after 21 days by micromethod; type: functional; details: H37Rv CNCTC My 331/88, 504 h
Lichtheimia corymbifera [22] = assay: Antifungal activity against Absidia corymbifera 272 after 48 hrs by broth microdilution method; type: functional; details: Lichtheimia corymbifera, 272, 48 h
Trichosporon asahii [23] = assay: Antifungal activity against Trichosporon asahii 1188 after 24 hrs by broth microdilution method; type: functional; details: Trichosporon asahii, 1188, 24 h
Aspergillus fumigatus [24] = assay: Antifungal activity against Aspergillus fumigatus 231 after 24 hrs by broth microdilution method; type: functional; details: Aspergillus fumigatus, 231, 24 h
Pseudomonas aeruginosa [25] = assay: Antibacterial activity against Pseudomonas aeruginosa ATCC 9027 after 48 hrs by broth microdilution method; type: functional; details: ATCC 9027, 48 h
Nakaseomyces glabratus [26] = assay: Antifungal activity against Candida glabrata 20/I after 24 hrs by broth microdilution method; type: functional
Mycobacterium kansasii [27] = assay: Antimycobacterial activity against Mycobacterium kansasii CNCTC My 235/80 after 7 days by micromethod; type: functional; details: CNCTC My 235/80, 168 h
Candida albicans [28] = assay: Antifungal activity against Candida albicans ATCC 44859 after 48 hrs by broth microdilution method; type: functional; details: ATCC 44859, 48 h
Aspergillus fumigatus [29] = assay: Antifungal activity against Aspergillus fumigatus 231 after 48 hrs by broth microdilution method; type: functional; details: Aspergillus fumigatus, 231, 48 h
Mycobacterium kansasii [30] = assay: Antimycobacterial activity against Mycobacterium kansasii CNCTC My 235/80 after 14 days by micromethod; type: functional; details: CNCTC My 235/80, 336 h
[31] = system: Trichophyton mentagrophytes; assay: Antifungal activity against Trichophyton mentagrophytes 445 after 72 hrs by broth microdilution method; type: functional; details: Trichophyton mentagrophytes, 445, 72 h
Staphylococcus aureus [32] = assay: Antibacterial activity against Staphylococcus aureus ATCC 6538 after 48 hrs by broth microdilution method; type: functional; details: ATCC 6538, 48 h
Mycobacterium avium [33] = assay: Antimycobacterial activity against Mycobacterium avium CNCTC My 330/80 after 14 days by micromethod; type: functional; details: CNCTC My 330/80, 336 h
Lichtheimia corymbifera [34] = assay: Antifungal activity against Absidia corymbifera 272 after 24 hrs by broth microdilution method; type: functional; details: Lichtheimia corymbifera, 272, 24 h
Candida tropicalis [35] = assay: Antifungal activity against Candida tropicalis 156 after 48 hrs by broth microdilution method; type: functional; details: Candida tropicalis, 156, 48 h
Mycobacterium kansasii [36] = assay: Antimycobacterial activity against Mycobacterium kansasii isolate 6509/96 after 14 days by micromethod; type: functional; details: isolate 6509/96, 336 h
Candida albicans [37] = assay: Antifungal activity against Candida albicans ATCC 44859 after 24 hrs by broth microdilution method; type: functional; details: ATCC 44859, 24 h
Enterococcus sp. [38] = assay: Antibacterial activity against Enterococcus sp. HK14365/08 after 24 hrs by broth microdilution method; type: functional; details: HK14365/08, 24 h
Candida tropicalis [39] = assay: Antifungal activity against Candida tropicalis 156 after 24 hrs by broth microdilution method; type: functional; details: Candida tropicalis, 156, 24 h
Klebsiella pneumoniae [40] = assay: Antibacterial activity against Klebsiella pneumoniae HK11750/08 after 48 hrs by broth microdilution method; type: functional; details: HK11750/08, 48 h
Pichia kudriavzevii [41] = assay: Antifungal activity against Candida krusei E28 after 24 hrs by broth microdilution method; type: functional; details: E28, 24 h
Staphylococcus aureus [42] = assay: Antibacterial activity against methicillin-resistant Staphylococcus aureus HK5996/08 after 24 hrs by broth microdilution method; type: functional; details: HK5996/08, 24 h

O=[N+]([O-])c1cc(-c2nnn(Cc3ccc(Br)cc3)n2)cc([N+](=O)[O-])c1
> 125 µM: MIC (Klebsiella pneumoniae [1]) | MIC (Klebsiella pneumoniae [6]) | MIC (Enterococcus sp. [7]) | MIC (Pseudomonas aeruginosa [9]) | MIC (Escherichia coli [11]) | MIC (Escherichia coli [13]) | MIC (Staphylococcus aureus [16]) | MIC (Klebsiella pneumoniae [19]) | MIC (Pseudomonas aeruginosa [25]) | MIC (Enterococcus sp. [38]) | MIC (Klebsiella pneumoniae [40]) | MIC (Staphylococcus aureus [42])
55 µM: IC50 (CHO-K1)
4 µM: MIC99 (Mycobacterium avium [33])
31.2 µM: MIC [12] | MIC [20]
62.5 µM: MIC (Staphylococcus aureus [4]) | MIC (Staphylococcus aureus [32])
8 µM: MIC99 (Mycobacterium avium [18])
1 µM: MIC99 (Mycobacterium kansasii [5]) | MIC99 (Mycobacterium kansasii [8]) | MIC99 (Mycobacterium kansasii [30]) | MIC99 (Mycobacterium kansasii [36])
0.25 µM: MIC99 [14] | MIC99 (Mycobacterium kansasii [17]) | MIC99 [21] | MIC99 (Mycobacterium kansasii [27])
> 500 µM: MIC (Trichosporon asahii [2]) | MIC (Nakaseomyces glabratus [3]) | MIC (Pichia kudriavzevii [10]) | MIC [15] | MIC (Lichtheimia corymbifera [22]) | MIC (Trichosporon asahii [23]) | MIC (Aspergillus fumigatus [24]) | MIC (Nakaseomyces glabratus [26]) | MIC (Candida albicans [28]) | MIC (Aspergillus fumigatus [29]) | MIC [31] | MIC (Lichtheimia corymbifera [34]) | MIC (Candida tropicalis [35]) | MIC (Candida albicans [37]) | MIC (Candida tropicalis [39]) | MIC (Pichia kudriavzevii [41])

O=[N+]([O-])c1cc(-c2nnn(Cc3ccccc3F)n2)cc([N+](=O)[O-])c1
> 500 µM: MIC (Klebsiella pneumoniae [1]) | MIC (Trichosporon asahii [2]) | MIC (Nakaseomyces glabratus [3]) | MIC (Klebsiella pneumoniae [6]) | MIC (Enterococcus sp. [7]) | MIC (Pseudomonas aeruginosa [9]) | MIC (Pichia kudriavzevii [10]) | MIC (Escherichia coli [11]) | MIC (Escherichia coli [13]) | MIC [15] | MIC (Klebsiella pneumoniae [19]) | MIC (Lichtheimia corymbifera [22]) | MIC (Trichosporon asahii [23]) | MIC (Aspergillus fumigatus [24]) | MIC (Pseudomonas aeruginosa [25]) | MIC (Nakaseomyces glabratus [26]) | MIC (Candida albicans [28]) | MIC (Aspergillus fumigatus [29]) | MIC [31] | MIC (Lichtheimia corymbifera [34]) | MIC (Candida tropicalis [35]) | MIC (Candida albicans [37]) | MIC (Enterococcus sp. [38]) | MIC (Candida tropicalis [39]) | MIC (Klebsiella pneumoniae [40]) | MIC (Pichia kudriavzevii [41])
500 µM: MIC (Staphylococcus aureus [4]) | MIC (Staphylococcus aureus [16]) | MIC (Staphylococcus aureus [32]) | MIC (Staphylococcus aureus [42])
8 µM: MIC99 (Mycobacterium avium [33])
1 µM: MIC99 (Mycobacterium kansasii [17]) | MIC99 (Mycobacterium kansasii [30]) | MIC99 (Mycobacterium kansasii [36])
2 µM: MIC99 (Mycobacterium kansasii [5]) | MIC99 (Mycobacterium kansasii [8])
> 200 µM: IC50 (CHO-K1)
250 µM: MIC [12] | MIC [20]
0.5 µM: MIC99 [14] | MIC99 [21] | MIC99 (Mycobacterium kansasii [27])
16 µM: MIC99 (Mycobacterium avium [18])

COc1ccc(Cn2nnnc2-c2cc([N+](=O)[O-])cc([N+](=O)[O-])c2)cc1
32 µM: MIC99 (Mycobacterium kansasii [8]) | MIC99 (Mycobacterium avium [18]) | MIC99 (Mycobacterium kansasii [30])
8 µM: MIC99 [14] | MIC99 (Mycobacterium kansasii [17]) | MIC99 [21] | MIC99 (Mycobacterium kansasii [36])
31.2 µM: MIC (Staphylococcus aureus [42])
21 µM: IC50 (CHO-K1)
125 µM: MIC (Klebsiella pneumoniae [1]) | MIC (Escherichia coli [13]) | MIC (Klebsiella pneumoniae [40])
16 µM: MIC99 (Mycobacterium kansasii [5]) | MIC99 (Mycobacterium kansasii [27]) | MIC99 (Mycobacterium avium [33])
62.5 µM: MIC (Staphylococcus aureus [4]) | MIC (Enterococcus sp. [7]) | MIC (Escherichia coli [11]) | MIC [12] | MIC [20] | MIC (Staphylococcus aureus [32]) | MIC (Enterococcus sp. [38])
> 500 µM: MIC (Pseudomonas aeruginosa [9]) | MIC (Pseudomonas aeruginosa [25])
15.6 µM: MIC (Staphylococcus aureus [16])
250 µM: MIC (Klebsiella pneumoniae [6]) | MIC (Pichia kudriavzevii [10]) | MIC (Klebsiella pneumoniae [19]) | MIC (Candida albicans [28]) | MIC (Candida albicans [37]) | MIC (Pichia kudriavzevii [41])
500 µM: MIC (Trichosporon asahii [2]) | MIC (Nakaseomyces glabratus [3]) | MIC [15] | MIC (Lichtheimia corymbifera [22]) | MIC (Trichosporon asahii [23]) | MIC (Aspergillus fumigatus [24]) | MIC (Nakaseomyces glabratus [26]) | MIC (Aspergillus fumigatus [29]) | MIC [31] | MIC (Lichtheimia corymbifera [34]) | MIC (Candida tropicalis [35]) | MIC (Candida tropicalis [39])
